Laboratory results reported in paper PMC7686313, “Phase 1 study of mTORC1/2 inhibitor sapanisertib (TAK-228) in advanced solid tumours, with an expansion phase in renal, endometrial or bladder cancer” (British Journal of Cancer, 2020).

Tests used:
[1] = test system: advanced solid tumours; assay: Tumour response according to RECIST v1.1, advanced solid tumours; type: in vivo, human; settings: for Duration of partial response (PR): dose-escalation
Method: Patients who received ≥1 dose of sapanisertib were included in the safety population. The response-evaluable population included patients who received ≥1 dose of sapanisertib, had measurable disease at baseline, and had ≥1 postbaseline assessment. In the dose-escalation phase, the evaluable population included patients who received ≥75% of the planned sapanisertib doses in cycle 1 or experienced a DLT. Response was assessed according to the RECIST v1.1[24] after every two treatment cycles. Adverse events (AEs) were assessed using the National Cancer Institute Common Terminology Criteria for Adverse Events, v4.0. Patients were provided with a home blood-glucose meter to monitor their fasting predose blood-glucose measurements to assess hyperglycaemia as an on-target AE and PD marker.

[2] = test system: renal cell carcinoma (RCC); assay: Tumour response according to RECIST v1.1, expansion phase, RCC; type: in vivo, human
Source text: Patients could be considered for enrolment in one of three disease-specific cohorts: (1) advanced or recurrent endometrial adenocarcinoma with disease progression following ≥1 prior chemotherapy regimen; (2) advanced/metastatic urothelial cancer (carcinoma of the bladder, ureter and/or renal pelvis), progressive after ≥1 prior therapy in the metastatic/unresectable setting; (3) advanced RCC after failure of ≥1 prior antivascular endothelial growth factor therapy with no prior TORC1 inhibitor therapy, or progressed on treatment with TORC1 inhibitor therapy.

[3] = test system: refractory clear-cell RCC; parameters: method as in earlier work; settings: single-agent 30 mg QW; cited from earlier work
[4] = dose-escalation QD 2–7 mg (n = 21)
[5] = dose-escalation QD × 3d 6–20 mg (n = 27)
[6] = dose-escalation QD × 5d 7–13 mg (n = 18)
[7] = dose-escalation QW 7–40 mg (n = 25)
[8] = expansion RCC TORC1 failure (n = 23)
[9] = expansion RCC TORC1 naïve (n = 18)

CC(C)n1nc(-c2ccc3oc(N)nc3c2)c2c(N)ncnc21 [Sapanisertib]
Patients achieving PR ([1]; both phases): nine
Patients with CR ([1]; both phases, 40 mg QW): One
Best overall response CR [1, 4]: 0 n (%)
Best overall response PD [1, 4]: 10 (48) n (%)
Best overall response PR [1, 4]: 0 n (%)
Best overall response SD < 6 months [1, 4]: 9 (43) n (%)
Best overall response SD ≥ 6 months [1, 4]: 2 (10) n (%)
CBR (CR + PR + SD ≥ 6 months) [1, 4]: 2 (10) n (%)
ORR (CR + PR) [1, 4]: 0 n (%)
Best overall response CR [1, 5]: 0 n (%)
Best overall response PD [1, 5]: 14 (52) n (%)
Best overall response PR [1, 5]: 0 n (%)
Best overall response SD < 6 months [1, 5]: 12 (44) n (%)
Best overall response SD ≥ 6 months [1, 5]: 1 (4) n (%)
CBR (CR + PR + SD ≥ 6 months) [1, 5]: 1 (4) n (%)
ORR (CR + PR) [1, 5]: 0 n (%)
Best overall response CR [1, 6]: 0 n (%)
Best overall response PD [1, 6]: 12 (67) n (%)
Best overall response PR [1, 6]: 1 (6) n (%)
Best overall response SD < 6 months [1, 6]: 4 (22) n (%)
Best overall response SD ≥ 6 months [1, 6]: 1 (6) n (%)
CBR (CR + PR + SD ≥ 6 months) [1, 6]: 2 (11) n (%)
ORR (CR + PR) [1, 6]: 1 (6) n (%)
Best overall response CR [1, 7]: 0 n (%)
Best overall response PD [1, 7]: 13 (52) n (%)
Best overall response PR [1, 7]: 2 (8) n (%)
Best overall response SD < 6 months [1, 7]: 9 (36) n (%)
Best overall response SD ≥ 6 months [1, 7]: 1 (4) n (%)
CBR (CR + PR + SD ≥ 6 months) [1, 7]: 3 (12) n (%)
ORR (CR + PR) [1, 7]: 2 (8) n (%)
Duration of partial response (PR) ([1]; one patient with carcinoid tumour receiving 10 mg QD × 5dQW): > 32 months
Duration of partial response (PR) ([1]; two patients with RCC receiving 15 mg QW and 40 mg QW): > 32 months
Best overall response CR [2, 8]: 0 n (%)
Best overall response PD [2, 8]: 7 (30) n (%)
Best overall response PR [2, 8]: 2 (9) n (%)
Best overall response SD < 6 months [2, 8]: 9 (39) n (%)
Best overall response SD ≥ 6 months [2, 8]: 5 (22) n (%)
CBR (CR + PR + SD ≥ 6 months) [2, 8]: 7 (30) n (%)
ORR (CR + PR) [2, 8]: 2 (9) n (%)
Best overall response CR [2, 9]: 1 (6) n (%)
Best overall response PD [2, 9]: 5 (28) n (%)
Best overall response PR [2, 9]: 3 (17) n (%)
Best overall response SD < 6 months [2, 9]: 7 (39) n (%)
Best overall response SD ≥ 6 months [2, 9]: 1 (6) n (%)
CBR (CR + PR + SD ≥ 6 months) [2, 9]: 5 (28) n (%)
ORR (CR + PR) [2, 9]: 4 (22) n (%)
Objective responses persisting for > 16 months ([2]; expansion phase): Four of the seven
Duration of complete response (CR) ([2]; expansion, one patient with TORC1 inhibitor−naïve RCC receiving 40 mg QW): 16 months
Responses [3]: no responses
